melting point [°C] | SMILES
98 to 99 | O=[N+]([O-])c1cc(S(=O)c2ccc(-c3ccccc3)cc2)ccc1Cl (stereo not given)
114 to 115 | O=C(CCc1ccccc1)N[C@H](Cc1ccc(C(F)(F)F)cc1)[C@@H](O)c1ccc(F)c(F)c1 (racemic)
146 to 148 | CC(C)(C)c1cc(CCC(=O)NCCNc2ccc(C#N)cc2)cc(C(C)(C)C)c1O
151 to 152 | CC(Cl)c1cc(F)ccc1Oc1nc2ccc(-n3cc(-c4ccccc4)nn3)cc2cc1Cc1ccccc1 (stereo not given)
120 | COC(=O)c1ccc(OC)c(NC(=N)c2ccc(F)cc2)c1
196 | CCOC(=O)c1c(N2CCN(C(=O)c3cccs3)CC2)c2cccnc2n(Cc2ccc(F)cc2)c1=O
141 to 144 | Cc1ccc(S(=O)(=O)N2CCSC2=C(c2cccc(C)c2C)C(N)c2cccc(C)c2)cc1 (stereo not given)
172 to 174 | CCCCOc1cc(/C=C/C(=O)O)n(Cc2ccc(C(F)(F)F)cc2Cl)n1
150 to 152 | CC(C)(C)OC(=O)NCc1ccc2c(Br)c(O)ccc2c1
98 to 102 | CCCC(=O)Oc1cc(C(C)C)ccc1C1(OC(=O)CCC)C(=O)c2ccccc2C1=O
162 | CC1=C(C(=O)OCCN(C)Cc2ccccc2)C(c2cccc([N+](=O)[O-])c2)c2c(N)nc(N)nc2N1 (stereo not given)
252 | CCCCNC(=O)Nc1cccc2c1C(=O)c1c-2n[nH]c1-c1ccc(OC)cc1
196 to 197 | Cc1ccc(C(=O)NCCO)cc1-n1c(C)cc(OCc2ccccc2CNC(=O)Nc2cc(C(C)(C)C)nn2-c2ccc(Cl)c(O)c2)c(Cl)c1=O
101 to 103 | CCN(CC)C(=O)c1ccc(CCCCOCCCCCCN(Cc2ccccc2)CC(O)c2ccc(O)c3[nH]c(=O)ccc23)cc1 (stereo not given)
159 to 160 | Cc1ccc2c(c1)/C(=N\NC(=O)NCc1ccccc1)C(=O)N2CCN(C(C)C)C(C)C
68 to 70 | O=C(CCCOCCc1ccc2ccccc2c1)c1ccc(F)cc1
179 | CC(C)(Oc1ccc(-c2ccc(CCNC(=O)c3ccccc3)cc2)cc1)C(=O)O
206 | O=c1c(CCCCO)c(O)c2cccnc2n1-c1ccccc1

melting point [°C] | SMILES
239 to 242 | OC1CCN(CCCOc2ccc3cc(-c4n[nH]c5cc(-c6ccccc6)sc45)[nH]c3c2)CC1
143 to 145 | CCc1cn(C2CC(OC(C)=O)C(CNC(=O)Cc3ccccc3NC(C)=O)O2)c(=O)[nH]c1=O (stereo not given)
111 to 114 | CC(C)=CCCOc1c(-c2ccc(S(C)(=O)=O)cc2)cnn(-c2ccc(F)cc2)c1=O
105 to 106 | O=C(O)Cc1cn(-c2ccccc2)nc1OCc1ccccc1
155 to 156 | C=CCOC(=O)c1ccc(NC(=O)C(C(=O)OC)c2ccc3c(c2)C(C)(C)CCC3(C)C)cc1 (stereo not given)
163 to 166 | COc1c(NC(=O)c2ccccc2)cccc1C(=O)NC1C(Cl)=CC(C(F)(c2ccc(Cl)cc2)C(F)(F)F)=CC1(Cl)OC (stereo not given)
151 to 153 | Cc1nc(N2CCN(Cc3nccc4ccccc34)C2=O)sc1C(=O)NCc1cccnc1
237 to 240 | Cc1cc(C(N)=O)ncc1C(c1c(F)ccc(F)c1F)S(=O)(=O)c1ccc2ccoc2c1 (stereo not given)
155 to 157 | CCC1OCCn2c1nc(C(=O)NCc1ccc(F)cc1-n1cncn1)c(OCc1ccccc1)c2=O (stereo not given)
132 to 136 | CC(C)(C)C(=O)Nc1ccccc1-c1cc2ccccc2[nH]1
136 to 138 | CC(=O)Nc1c(C(=O)c2ccccc2)[nH]c2cc(C)ccc12
163 to 165 | Nc1nc2ccccc2c2c1ncn2CCCCCC(=O)c1ccccc1
131 to 133 | Nc1ccc(-c2cc(OCCCCCC(=O)O)nc(-c3ccccc3)c2)cc1
105 to 108 | Cc1cc(SCc2cccc3nn(-c4ccc(C(F)(F)F)cc4)cc23)ccc1OCC(=O)O
135 to 138 | CCc1nc2c(cnn2CC)c(NC2CCOCC2)c1CNC(=O)c1cccc(C(=O)NCc2ccc(C)c(-c3cccc(CN4CCNCC4)c3)c2)c1
142 to 145 | COC(=O)c1ccc(OCCCBr)cc1NC(=O)C=Cc1ccc(-c2ccccc2)cc1
178 | CCCCCCCCCCCCCCCCCCOC(=O)Nc1ccc(NC(=O)NS(=O)(=O)c2ccc3ccccc3c2)cc1

The remaining lines, values behind:

SMILES | melting point [°C]
N#Cc1c[nH]c(-c2ccc(F)cc2)c1 | 158 to 159
O=C(Oc1ccccc1)N1CCC(Sc2ccncc2)CC1 | 102 to 104
COC(=O)CCS(=O)(=O)c1ccc(NC(C)=O)cc1 | 156 to 158
COC[C@H]1CN(c2ccc3nc([C@@H](O)CCC#N)sc3c2)C(=O)O1 | 74 to 75
CN1CCC2(c3ccccc3)OC2C1 (stereo not given) | 44 to 45
Cc1on(C(=O)N(c2ccc(Cl)cc2)C(C)C)c(=O)c1Cl | 136 to 137
CC(=CC(=O)O)CCCCCCCCCCCCC(=O)O | 77
O=c1[nH]c(F)c(Cl)c(Cl)c1Cl | 172 to 176
CCOC(=O)CN1C(=O)C(NC(=O)Cc2ccc(Cl)cc2)N=C(c2ccccc2)c2ccccc21 (stereo not given) | 205 to 207
Cn1cc2c(CO)c(Br)ccc2n1 | 123 to 125
c1ccc(-c2nc(COc3ccc(CCCn4ccnc4)cc3)cs2)cc1 | 110 to 111
c1csc(C2=NOCCS2)c1 | 86 to 89
O=C(O)CCSC1c2ccccc2COc2ccc(OCc3ccc4cc(F)ccc4n3)cc21 (stereo not given) | 167 to 171
N#CCc1cc(I)cc(Cc2nc3c(F)c(F)cc(F)c3s2)c1 | 127 to 130
Nc1nnc2ccccc2n1 | 208 to 210
COc1ccc(-c2cnc(NS(=O)(=O)Cc3ccccc3)c(Cc3ccccc3)n2)cc1 | 213 to 215
Sc1nc2cnc3ccccc3c2s1 | 282 to 284
O=CC1(Nc2ccccc2)CCN(Cc2ccccc2)CC1 | 118 to 119
CC(=O)NCC1=C(n2ccccc2=O)c2cc(C(F)(F)F)ccc2OC1(C)C | 174
CCOC(=O)C1(NS(=O)(=O)c2ccc3c(Cl)cnc(NC(=N)N)c3c2)CCCC1 | 225 to 226

SMILES | melting point [°C]
Clc1ccc(-c2ccc3nncn3n2)cc1 | 216 to 218
CCOCc1nc2c(N)nc3ccccc3c2n1Cc1cc(-c2ccc(F)cc2)no1 | 203 to 204
CC(CCc1ccc(N(C)C)cc1)NCC(O)c1sccc1C(N)=O (stereo not given) | 118 to 121
SCc1cn(C(c2ccccc2)(c2ccccc2)c2ccccc2)nn1 | 140 to 141
CC(=O)Nc1cc2c(cc1[N+](=O)[O-])OC(C)(C)[C@@H](O)[C@@H]2N1CCCC1=O (relative stereo) | 240 to 241
CO[C@@H]1CN(CCC#N)CC[C@@H]1NC(=O)c1cc(Cl)c(N)c2c1OCC2 (relative stereo) | 191
CC1CN(c2c(F)c(N)c3c(=O)c(C(=O)O)cn(C4CC4)c3c2OC(F)F)CCN1 (stereo not given) | 283 to 286
O=c1c2cccc3ncc(c(=O)n1CCCCNS(=O)(=O)C(F)(F)F)n32 | 206 to 207
CCOC(=O)C(=O)c1c[nH]c2ccc(CNS(C)(=O)=O)cc12 | 218 to 220
NS(=O)(=O)c1ccc(-c2noc(-c3ncn4c(C(F)(F)F)cc(-c5ccc(C(F)(F)F)cc5)nc34)n2)s1 | 295
COC(=O)CCC(=O)N1CCc2cc(S(=O)(=O)N3CCN(c4ccc(F)cc4)CC3)ccc21 | 213 to 215
CCNC1CN(c2c(F)cc3c(=O)c(C(=O)O)cn(C4CC4)c3c2F)C1 | 222 to 227
Nc1nc2[nH]c(CCC#Cc3ccc(C(=O)N[C@@H](CCC(=O)O)C(=O)O)cn3)cc2c(=O)[nH]1 | 178 to 179
O=c1c2cc(F)c(N3CCCC3)cc2n(-c2ccc(F)cc2F)c(=O)n1O | 232 to 234
CC(C)(c1ccccc1)N1CC=C(c2ccccc2)C1=O | 85 to 86
CC(=O)n1c(C)c(-c2ccc(F)cc2)c2cccnc21 | 84 to 87
CN1N=C2C(=Cc3ccccc3)CN(C(=O)CCl)CC2C1c1ccccc1 (stereo not given) | 88 to 90
CCOC(=O)c1[nH]c2cc(Cl)c(Cl)cc2c1-c1ccc(Cl)cc1Cl | 160 to 161
CSc1ccc(C(C)C)c(NC(=O)CN2CCN(CCCSc3nc4ccccc4o3)CC2)c1C(C)C | 126 to 127
O=C(O)c1cn(-c2ccc(F)cc2)c2cc(F)c(F)cc2c1=O | 252 to 256

SMILES | melting point [°C]
CN1CC(Cc2ccccc2)OC1=O (stereo not given) | 80 to 82
CCC1(C)CC2(NC(=O)N(C)C2=O)C(C)C(C)(CC)N1 (stereo not given) | 137 to 142
N#Cc1[nH]c(=O)n(-c2ccc(Cl)cc2)c1C#N | 242 to 245
O=C(O)c1ncn2c1[C@@H]1CCN1C(=O)c1cc(F)ccc1-2 | 159 to 160
COc1ccc2c3c(n(C)c2c1)SCCC3=O | 204 to 206
CC(=O)N1CCNC1=NC(c1ccccc1)c1ccccc1 | 234 to 236
CS(C)=Nc1cnc(Cl)cn1 | 119 to 120
COC(=O)c1cc2c(S(=O)(=O)Cl)cc(Cl)c(Cl)c2o1 | 199 to 200
CC(=O)N1CCc2sc(C)c(C(=O)CCCN3CCC(c4noc5cc(F)ccc45)CC3)c2C1 | 116 to 118
CC(=O)OC1CSC(Sc2ccccc2S(C)(=O)=O)C(OC(C)=O)C1OC(C)=O (stereo not given) | 209
CN[C@@H](CC(C)C)C(=O)N[C@@H](Cc1ccccc1)C(N)=O | 136 to 138
COc1cc(C(=O)Nc2c(C)cc3cn[nH]c3c2C(=O)NC2(C3CC3)CC2)n(-c2ncccc2Cl)n1 | 150 to 154
COCCOC1(S(C)=O)C=CC=C(C(=O)c2cnoc2C2CC2)C1Br (stereo not given) | 86.2 to 87
Nc1ccc([C@H]2CC[C@H](NCCCc3ccccc3)CC2)cc1 | 60 to 63
O=C(N(C=Cc1ccc(F)cc1)C=Cc1ccc(F)cc1)C1(O)CSc2ccccc21 (stereo not given) | 150 to 151
COc1ccc(/C=C/C2=NS(=O)(=O)c3ccccc3N2)cc1OC | 276 to 279
Nc1ncc2[nH]c3ccccc3c2n1 | 258 to 260
Cc1cc(F)c(F)cc1O | 68 to 70
C=C(C)CNC(=NC#N)Nc1cccnc1 | 140 to 141
CCCCCCCCCCCCn1nnnc1CCC(=O)Nc1c(OC)cc(OC)cc1OC | 57 to 61
